One data set concerns the target HDAC5 (Homo sapiens, UniProt Q9UQL6). In words: HDAC selectivity panel: HDAC5. The data set is classed as biochemical.
The next data set concerns the target T1, HDAC8 (Homo sapiens, UniProt Q9BY41).
T1 sequence (Q9BY41 1-377): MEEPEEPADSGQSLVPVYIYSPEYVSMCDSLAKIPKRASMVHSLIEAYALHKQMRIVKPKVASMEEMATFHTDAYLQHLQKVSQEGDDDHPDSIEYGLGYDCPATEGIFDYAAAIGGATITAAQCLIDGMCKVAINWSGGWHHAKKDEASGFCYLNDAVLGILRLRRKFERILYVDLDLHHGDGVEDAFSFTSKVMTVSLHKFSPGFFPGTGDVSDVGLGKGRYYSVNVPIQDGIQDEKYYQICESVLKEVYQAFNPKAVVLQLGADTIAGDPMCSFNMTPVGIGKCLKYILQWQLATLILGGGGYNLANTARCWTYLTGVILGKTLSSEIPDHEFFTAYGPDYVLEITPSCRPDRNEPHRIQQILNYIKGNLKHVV
In words: HDAC selectivity panel: HDAC8. It is filed as biochemical.

Another data set concerns the target T2, HDAC11 (Homo sapiens, UniProt Q96DB2).
T2 sequence (Q96DB2 1-347): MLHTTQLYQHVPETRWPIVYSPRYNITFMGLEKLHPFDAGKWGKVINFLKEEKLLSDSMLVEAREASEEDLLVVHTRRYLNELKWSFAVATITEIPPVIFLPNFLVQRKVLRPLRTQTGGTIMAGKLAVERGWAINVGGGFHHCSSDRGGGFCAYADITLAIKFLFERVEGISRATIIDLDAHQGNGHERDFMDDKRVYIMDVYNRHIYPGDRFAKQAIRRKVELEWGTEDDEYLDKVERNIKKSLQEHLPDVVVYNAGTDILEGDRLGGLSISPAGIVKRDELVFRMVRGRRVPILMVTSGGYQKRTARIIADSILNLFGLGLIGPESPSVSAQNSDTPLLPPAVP
In words: HDAC selectivity panel: HDAC11. The data set is classed as biochemical.

The subject of data set [1] is acetyl-α-tubulin in SH-SY5Y neuroblastoma cells. In words: ICC dose response of acetylated alpha-tubulin in SH-SY5Y neuroblastoma cells. The data set is classed as cell-based. The following applies: 24-hour treatment. The procedure: Cell Seeding: Seeded at 2,000 cells/well in 384-well plates 24-hours prior to compound treatment
Compound Treatment: 24-hour
HDAC6 inhibitor compounds tested (1 control and 6 experimental)
9-point dose-response curves for all compounds, starting at 30 μM with 3-fold serial dilutions
4 technical replicate wells per condition tested
Cells were seeded in 90 μL media. 10 μL of 10× compound solutions added to 90 μL media for 24-hours
Fixation: 4% PFA for 15 minutes (after removing all media and washing with DPBS+0.1% Tween-20)
Permeabilization: 0.1% Triton X-100 for 20 minutes
Primary antibody: acetyl-α-tubulin (Lys40/D20G3; Cell Signaling Technologies, #5335S) 1:1000 dilution in DPBS+5% goat serum+0.1% Tween-20, 1 hour at room temp on orbital shaker
Secondary antibody: Goat anti-Rabbit IgG (H+L) Highly Cross-Adsorbed Secondary Antibody, Alexa Fluor™ Plus 488, Catalog #A32731, 1:1000 dilution+Hoechst 33342, 1:10,000 dilution in DPBS+5% goat serum+0.1% Tween-20, 1 hour at room temp on orbital shaker
High-content imaging system: Image Xpress Micro Confocal from Molecular Devices […]
Integrated fluorescence intensity of acetyl-α-tubulin was calculated using an automated image-analysis algorithm in Meta Xpress software
Average intensity per cell was calculated by dividing the integrated fluorescence intensity by the number of nuclei. […]

Data set [2] in a line: ALS mouse model: body weight. The following applies: SOD1-G93A mice, in g (unit assumed). It is filed as in vivo. The procedure:
Mice were weighed and randomized into different groups and age matched control groups were kept as such. Test compound I-8 was freshly formulated and administered to the respective animals of each group as per body weight. Animals in G1 and G2 were administered with vehicle. G3 and G4 group animals were dosed with compound I-8 at the dose of 15 mg/kg and 30 mg/kg respectively, per orally; Q.D. G4 animals were administered 30 mg/kg dose until day 34 and 50 mg/kg from day 35 onwards.
The body weight of each animal was recorded at the time of randomization and once in 2 days during the study period.

The test system of data set [3] is B6SJL.SOD1-G93A transgenic mouse model of amyotrophic lateral sclerosis. In words: Pre-clinical ALS mouse model efficacy: motor behavior. It is filed as in vivo, mice. The following applies: both doses (G3 and G4), week 10 until week 16. The procedure:
Effect of test compound I-8 in Cyagen, male B6SJL.SOD1-G93A 9-week-old transgenic mouse model of amyotrophic lateral sclerosis
Compound I-8 effect was evaluated in Cyagen, Male B6SJL.SOD1-G93A 9-week-old mice, an animal model of amyotrophic lateral sclerosis.

Another data set has as its system Tg2576 AD Disease Mice. In words: Tg2576 study: Y-maze test. It is filed as in vivo. Particulars: for # of Spontaneous Alterations (Y-Maze) / % Spontaneous Alterations (Y-Maze): G3 Tg2576 mice. The procedure:
Mice were weighed and randomized into groups. All the test formulations were freshly administered to respective animals of each group as per body weight. Basal behavior of the animals was recorded and analyzed in open field, Y-Maze, and EPM. Post basal behavior, animals were treated with compound I-16 for the duration of 3 months (i.e., from 6 months until 9 months). During the treatment duration, animals were subjected to different behavioral tests such as OFT, Y-maze, and EPM at 7, 8 and 9 months. At the end of experiments (i.e., at 9 months) animals were subjected to Morris water maze test.
To test spatial working memory, animals were subjected to spontaneous alteration test in Y-maze (Arm length—57 cm). During the test, the animal was placed at the end of one arm and allowed to explore the arena for a duration of 10 minutes. During the testing session, the number of entries in each arm were recorded and % alterations were calculated.
% Spontaneous alteration=(Spontaneous alteration/Total Arm entries−2)×100

The mark [4] stands for this setting: 50 mg/kg then 80 mg/kg from day 36 p.o., 8th months.
Setting [5] is: 50 mg/kg then 80 mg/kg from day 36 p.o., 9th months.
[6] abbreviates: 6th months (Basal, before treatment).

Molecules are shown by their SMILES. pIC50: −log10 of the molar value.

Sequence of HDAC5 (Q9UQL6 whole entry, species assumed): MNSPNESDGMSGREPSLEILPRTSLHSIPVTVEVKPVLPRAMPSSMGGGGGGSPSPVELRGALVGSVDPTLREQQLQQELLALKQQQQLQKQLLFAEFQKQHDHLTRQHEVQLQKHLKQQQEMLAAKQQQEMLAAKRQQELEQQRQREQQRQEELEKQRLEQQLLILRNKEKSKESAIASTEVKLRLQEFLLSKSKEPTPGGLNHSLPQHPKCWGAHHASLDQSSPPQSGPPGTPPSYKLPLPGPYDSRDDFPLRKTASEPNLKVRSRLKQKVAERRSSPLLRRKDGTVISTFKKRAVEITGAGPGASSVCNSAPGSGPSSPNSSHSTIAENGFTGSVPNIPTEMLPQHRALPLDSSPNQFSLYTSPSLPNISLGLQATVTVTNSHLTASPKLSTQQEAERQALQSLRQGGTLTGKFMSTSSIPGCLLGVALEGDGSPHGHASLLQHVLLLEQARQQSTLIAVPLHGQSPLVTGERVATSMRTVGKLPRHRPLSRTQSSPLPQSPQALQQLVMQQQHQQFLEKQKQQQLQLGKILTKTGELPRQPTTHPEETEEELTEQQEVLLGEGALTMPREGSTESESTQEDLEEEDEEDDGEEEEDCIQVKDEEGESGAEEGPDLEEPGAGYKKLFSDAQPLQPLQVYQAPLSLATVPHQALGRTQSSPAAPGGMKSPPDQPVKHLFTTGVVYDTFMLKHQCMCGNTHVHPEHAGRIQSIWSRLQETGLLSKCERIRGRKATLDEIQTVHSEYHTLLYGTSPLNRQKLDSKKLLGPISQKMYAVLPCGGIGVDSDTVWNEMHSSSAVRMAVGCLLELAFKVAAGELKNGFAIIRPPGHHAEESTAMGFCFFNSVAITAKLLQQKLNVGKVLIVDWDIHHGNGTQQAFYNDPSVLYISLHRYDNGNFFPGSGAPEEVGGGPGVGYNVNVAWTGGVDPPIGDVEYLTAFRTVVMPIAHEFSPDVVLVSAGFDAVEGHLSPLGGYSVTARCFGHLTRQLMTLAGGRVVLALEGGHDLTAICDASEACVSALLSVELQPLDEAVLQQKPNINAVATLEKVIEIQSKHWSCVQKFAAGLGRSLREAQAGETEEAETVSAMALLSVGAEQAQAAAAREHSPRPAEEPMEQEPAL

Broadly, the pIC50 is −log10 of the IC50, conventionally taken in molar units. A low value points to a large IC50. Take `CC1CN(Cc2ccc(Nc3nccc(-c4ccc(C(=O)NO)cc4)n3)cc2F)CCO1` (racemic) [Compound I-8, 4-(2-((3-fluoro-4-((2-methylmorpholino)methyl)phenyl)amino)pyrimidin-4-yl)-N-hydroxybenzamide]: the pIC50 was 5.11 against HDAC5, 6.99 against HDAC8 and 6.38 against HDAC11. In data set [1], the “increase in acetyl-α-tubulin (ICC)” value was “induce acetylation of α-tubulin in SH-SY5Y neuroblastoma cells in a dose-dependent manner”. Moreover, the Body weight in data set [2] (G3 15 mg/kg p.o. QD, Day 1) came to 25.99 ± 0.73; in data set [2] (G3 15 mg/kg p.o. QD, Day 7) it was 25.97 ± 0.70; in data set [2] (G3 15 mg/kg p.o. QD, Day 13) it was 26.54 ± 0.52; in data set [2] (G3 15 mg/kg p.o. QD, Day 21) it was 26.81 ± 0.45; in data set [2] (G3 15 mg/kg p.o. QD, Day 27) it was 26.51 ± 0.46; in data set [2] (G3 15 mg/kg p.o. QD, Day 35), 26.76 ± 0.43. Further, the Body weight in data set [2] (G3 15 mg/kg p.o. QD, Day 43) was 26.60 ± 0.50; in data set [2] (G3 15 mg/kg p.o. QD, Day 49), 25.47 ± 0.62; in data set [2] (G3 15 mg/kg p.o. QD, Day 52) it was 24.52 ± 0.68; in data set [2] (G4 30 mg/kg (50 mg/kg from day 34) p.o. QD, Day 1), 25.66 ± 0.48; in data set [2] (G4 30 mg/kg (50 mg/kg from day 34) p.o. QD, Day 7) it was 25.64 ± 0.40; in data set [2] (G4 30 mg/kg (50 mg/kg from day 34) p.o. QD, Day 13), 26.14 ± 0.52. Moreover, the Body weight in data set [2] (G4 30 mg/kg (50 mg/kg from day 34) p.o. QD, Day 21) turned out to be 27.53 ± 0.60; in data set [2] (G4 30 mg/kg (50 mg/kg from day 34) p.o. QD, Day 27), 27.29 ± 0.52; in data set [2] (G4 30 mg/kg (50 mg/kg from day 34) p.o. QD, Day 35) it was 26.55 ± 0.57; in data set [2] (G4 30 mg/kg (50 mg/kg from day 34) p.o. QD, Day 43), 26.04 ± 0.60; in data set [2] (G4 30 mg/kg (50 mg/kg from day 34) p.o. QD, Day 49), 24.30 ± 0.96; in data set [2] (G4 30 mg/kg (50 mg/kg from day 34) p.o. QD, Day 52 (n = 6-8)) it was 24.75 ± 0.45. The “motor behavior compared to disease control group” value in data set [3] was “Improvement was observed in motor behavior”.
Consider `C[C@@H]1CN(Cc2ccc(Nc3nccc(-c4ccc(C(=O)NO)cc4)n3)cc2F)CCO1` [Compound I-16, (R)-4-(2-((3-fluoro-4-((2-methylmorpholino)methyl)phenyl)amino)pyrimidin-4-yl)-N-hydroxybenzamide], for which the “Y Maze: number of spontaneous alterations compared to G2 (Tg2576 + vehicle)” value in the data set on Tg2576 AD Disease Mice (G3 Tg2576 AD disease mice, 50 mg/kg) is reported as “did not show any significant difference”. For the same compound, the “# of Spontaneous Alterations (Y-Maze)” value in the data set on Tg2576 AD Disease Mice (50 mg/kg p.o., 7th months) is listed as 18.70 ± 6.96; with Tg2576 AD Disease Mice (setting [4]), 16.00 ± 2.59; in the data set on Tg2576 AD Disease Mice (setting [5]) it was 16.00 ± 2.48; with Tg2576 AD Disease Mice (setting [6]), 25.00 ± 5.19. For the same compound, the “% Spontaneous Alterations (Y-Maze)” value was 57.59 ± 3.85% in the data set with Tg2576 AD Disease Mice (50 mg/kg p.o., 7th months); 41.65 ± 5.52% in the data set with Tg2576 AD Disease Mice (setting [4]); 43.66 ± 4.55% in the data set with Tg2576 AD Disease Mice (setting [5]); 53.60 ± 3.25% in the data set on Tg2576 AD Disease Mice (setting [6]).
